# Columns and labels:
# human TTK = biological target: T1, human TTK (Homo sapiens, UniProt P33981); test: TTK inhibition assay (indirect ELISA); type: biochemical; conditions: GST-TTK 0.68 nM, 16 μM ATP; read-out: IC50 Ranges TTK
# T1 construct: amino terminal GST fusion of full length human TTK; purchased Invitrogen
# T1 sequence (P33981 1-857): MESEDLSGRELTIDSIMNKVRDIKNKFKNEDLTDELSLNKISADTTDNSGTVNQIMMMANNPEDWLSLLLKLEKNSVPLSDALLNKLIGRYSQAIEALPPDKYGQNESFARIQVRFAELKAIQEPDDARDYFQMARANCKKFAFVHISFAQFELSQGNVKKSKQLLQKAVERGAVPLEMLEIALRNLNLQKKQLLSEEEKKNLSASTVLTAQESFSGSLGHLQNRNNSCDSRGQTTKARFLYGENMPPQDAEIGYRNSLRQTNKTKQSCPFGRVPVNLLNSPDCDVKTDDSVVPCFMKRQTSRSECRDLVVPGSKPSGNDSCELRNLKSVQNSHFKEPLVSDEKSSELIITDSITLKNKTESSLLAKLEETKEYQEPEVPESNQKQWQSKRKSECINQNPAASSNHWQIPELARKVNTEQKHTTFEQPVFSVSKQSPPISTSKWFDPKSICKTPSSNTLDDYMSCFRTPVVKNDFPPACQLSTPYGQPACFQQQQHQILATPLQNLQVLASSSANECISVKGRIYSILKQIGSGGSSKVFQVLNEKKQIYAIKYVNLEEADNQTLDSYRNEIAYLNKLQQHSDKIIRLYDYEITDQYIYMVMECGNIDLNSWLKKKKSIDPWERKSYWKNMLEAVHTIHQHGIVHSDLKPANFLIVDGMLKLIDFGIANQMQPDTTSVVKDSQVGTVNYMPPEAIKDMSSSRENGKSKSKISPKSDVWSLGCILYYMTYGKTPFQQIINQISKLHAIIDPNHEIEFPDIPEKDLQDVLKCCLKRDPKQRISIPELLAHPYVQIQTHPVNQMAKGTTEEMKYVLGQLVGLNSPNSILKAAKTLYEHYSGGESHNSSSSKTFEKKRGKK
# human PLK4 = biological target: T2, human PLK4 (Homo sapiens, UniProt O00444); test: PLK4 inhibition assay (indirect ELISA); type: biochemical; conditions: GST-PLK4 4 nM, 15 μM ATP; read-out: IC50 Ranges PLK4
# T2 construct: amino terminal GST fusion of residues 1-391 of human PLK4; made in house; host or cells: E. coli
# T2 sequence (O00444 1-391): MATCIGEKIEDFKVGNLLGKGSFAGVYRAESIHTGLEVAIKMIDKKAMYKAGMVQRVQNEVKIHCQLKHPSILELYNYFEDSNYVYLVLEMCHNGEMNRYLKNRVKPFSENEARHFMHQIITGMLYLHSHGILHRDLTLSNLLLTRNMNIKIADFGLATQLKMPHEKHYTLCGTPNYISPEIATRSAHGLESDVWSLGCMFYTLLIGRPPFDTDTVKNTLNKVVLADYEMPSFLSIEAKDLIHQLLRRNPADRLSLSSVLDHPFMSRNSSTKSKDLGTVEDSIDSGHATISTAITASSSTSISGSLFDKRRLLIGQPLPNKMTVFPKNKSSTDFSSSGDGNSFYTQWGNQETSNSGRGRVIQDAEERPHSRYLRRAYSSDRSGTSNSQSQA
# Experimental: Active PLK4 was purified from an E. coli expression system as an amino terminal GST fusion of residues 1-391 of human PLK4. The protein was purified from clarified cell extracts after induction at 15° C. overnight using glutathione sepharose, gel permeation chromatography, and ion exchange (Resource Q). The resulting protein was dephosphorylated with lambda phosphatase (NEB cat#P0753), and resolved from the phosphatase using gluthione sepharose. The dephosphorylated GST-PLK4 was stored in aliquots at −80° C. until use.
# PLK4 activity was measured using an indirect ELISA detection system. GST-PLK4 (4 nM) was incubated in the presence of 15 μM ATP (Sigma cat#A7699), 50 mM HEPES-Na^2+ pH 7.5, 10 mM MgCl2, 0.01% Brij 35 (Sigma cat#03-3170), in a 96 well microtitre plate pre-coated with MBP (Millipore cat#30-011). The reaction was allowed to proceed for 30 minutes, followed by 5 washes of the plate with Wash Buffer (phosphate buffered saline supplemented with 0.2% Tween 20), and incubation for 30 minutes with a 1:3000 dilution of primary antibody (Cell Signaling cat#9381). The plate was washed 5 times with Wash Buffer, incubated for 30 minutes in the presence of secondary antibody coupled to horse radish peroxidase (BioRad cat#1721019, 1:3000 concentration), washed an additional 5 times with Wash Buffer, and incubated in the presence of TMB substrate (Sigma cat#T0440). The colourimetric reaction was allowed to continue for 5 minutes, followed by addition of stop solution (0.5 N sulphuric acid), and quantified by detection at 450 nm with either a monochromatic or filter based plate reader (Molecular Devices M5 or Beckman DTX880, respectively).
# Compound inhibition was determined at either a fixed concentration (10 μM) or at a variable inhibitor concentration (typically 0.5 μM to 0.001 μM in a 10 point dose response titration). Compounds were pre-incubated in the presence of enzyme for 15 minutes prior to addition of ATP and the activity remaining quantified using the above described activity assay. The % Inhibition of a compound was determined using the following formula; % Inhibition=100×(1-(experimental value−background value)/(high activity control−background value)). The IC50 value was determined using a non-linear 4 point logistic curve fit (XLfit4, IDBS) with the formula; (A+(B/(1+((x/C)̂D)))), where A=background value, B=range, C=inflection point, D=curve fit parameter.
# Aurora B = biological target: T3, Aurora B (Homo sapiens, UniProt Q96GD4); test: Aurora B inhibition assay (Z-Lyte); type: biochemical; conditions: 28 nM Aurora B, 128 μM ATP; read-out: IC50 Ranges Aurora B
# T3 construct: purchased Invitrogen PV3970
# Experimental: Aurora B inhibition was determined using the Z-Lyte assay kit from Invitrogen. The assay was performed using the recommended manufacturer's instructions with 128 μM ATP and 28 nM Aurora B (Invitrogen cat #PV3970). The % inhibition values were determined according to the manufacturer's directions and IC50 values were obtained using a non-linear 4 point logistic curve fit (XLfit4, IDBS)
# [1] = system: MDA-MB-231 breast cancer cells; test: Cell growth inhibition, Sulforhodamine B assay, MDA-MB-231; type: cell-based; conditions: Homo sapiens, 120 h, 5 days culture, SRB assay, read-out: Cell Line GI50 Range MDA-MB-231
# [2] = system: MDA-MB-468 breast cancer cells; test: Cell growth inhibition, Sulforhodamine B assay, MDA-MB-468; type: cell-based; conditions: Homo sapiens, 120 h, 5 days culture, SRB assay, read-out: Cell Line GI50 Range MDA-MB-468
# [3] = system: HCT116 colon cancer cells; test: Cell growth inhibition, Sulforhodamine B assay, HCT116; type: cell-based; conditions: Homo sapiens, HCT-116, 120 h, 5 days culture, SRB assay, read-out: Cell Line GI50 Range HCT116
# T3 sequence (Q96GD4 whole entry): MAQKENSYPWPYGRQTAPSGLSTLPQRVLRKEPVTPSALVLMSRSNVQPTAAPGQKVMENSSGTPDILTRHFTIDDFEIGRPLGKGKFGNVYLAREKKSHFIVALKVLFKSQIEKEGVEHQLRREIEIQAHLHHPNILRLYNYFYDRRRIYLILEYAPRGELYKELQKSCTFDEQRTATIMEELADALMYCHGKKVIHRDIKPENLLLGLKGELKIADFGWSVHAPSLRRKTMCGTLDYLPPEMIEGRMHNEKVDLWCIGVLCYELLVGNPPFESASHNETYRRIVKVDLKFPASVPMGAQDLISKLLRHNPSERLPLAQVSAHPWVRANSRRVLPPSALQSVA
Structure (SMILES),IC50 (human TTK),IC50 (human PLK4),IC50 (Aurora B),GI50 [1],GI50 [2],GI50 [3]
"O=C(Nc1ccc2[nH]nc(-c3cccc(CN4CCOCC4)c3)c2c1)C(c1ccsc1)N1CCCC1 (stereo not drawn) [Example A1, N-(3-(3-(morpholinomethyl)phenyl)-1H-indazol-5-yl)-2-(pyrrolidin-1-yl)-2-(thiophen-3-yl)acetamide]",≤ 5 µM,≤ 5 µM,5 to 50 µM,≤ 5 µM,≤ 5 µM,≤ 5 µM
"CN1CCN(c2ccc(-c3n[nH]c4ccc(NC(=O)C(c5ccsc5)N5CCCC5)cc34)cc2)CC1 (stereo not drawn) [Example A2, N-(3-(4-(4-methylpiperazin-1-yl)phenyl)-1H-indazol-5-yl)-2-(pyrrolidin-1-yl)-2-(thiophen-3-yl)acetamide]",≤ 5 µM,≤ 5 µM,≤ 5 µM,≤ 5 µM,≤ 5 µM,≤ 5 µM
"O=C(Nc1ccc2[nH]nc(-c3ccc(CN4CCOCC4)cc3)c2c1)C(c1ccsc1)N1CCCC1 (stereo not drawn) [Example A3, N-(3-(4-(morpholinomethyl)phenyl)-1H-indazol-5-yl)-2-(pyrrolidin-1-yl)-2-(thiophen-3-yl)acetamide]",≤ 5 µM,≤ 5 µM,≤ 5 µM,≤ 5 µM,≤ 5 µM,≤ 5 µM
"CN(C)CCOc1ccc(-c2n[nH]c3ccc(NC(=O)C(c4ccsc4)N4CCCC4)cc23)cc1 (stereo not drawn) [Example A5, N-(3-(4-(2-(dimethylamino)ethoxy)phenyl)-1H-indazol-5-yl)-2-(pyrrolidin-1-yl)-2-(thiophen-3-yl)acetamide]",≤ 5 µM,≤ 5 µM,5 to 50 µM,≤ 5 µM,≤ 5 µM,≤ 5 µM
"O=C(Nc1ccc2[nH]nc(-c3ccc(CCN4CCOCC4)cc3)c2c1)C(c1ccsc1)N1CCCC1 (stereo not drawn) [Example A6, N-(3-(4-(2-morpholinoethyl)phenyl)-1H-indazol-5-yl)-2-(pyrrolidin-1-yl)-2-(thiophen-3-yl)acetamide]",≤ 5 µM,≤ 5 µM,≤ 5 µM,≤ 5 µM,≤ 5 µM,≤ 5 µM
"COc1cc(-c2n[nH]c3ccc(NC(=O)C(c4ccsc4)N4CCCC4)cc23)ccc1OC1CCNCC1 (stereo not drawn) [Example A8, N-(3-(3-methoxy-4-(piperidin-4-yloxy)phenyl)-1H-indazol-5-yl)-2-(pyrrolidin-1-yl)-2-(thiophen-3-yl)acetamide]",≤ 5 µM,≤ 5 µM,≤ 5 µM,≤ 5 µM,≤ 5 µM,≤ 5 µM
"COc1cc(-c2n[nH]c3ccc(NC(=O)C(c4ccsc4)N4CCCC4)cc23)ccc1N1CCN(C)CC1 (stereo not drawn) [Example A10, N-(3-(3-methoxy-4-(4-methylpiperazin-1-yl)phenyl)-1H-indazol-5-yl)-2-(pyrrolidin-1-yl)-2-(thiophen-3-yl)acetamide]",≤ 5 µM,≤ 5 µM,≤ 5 µM,≤ 5 µM,≤ 5 µM,≤ 5 µM
"CN1CCN(c2ccc(-c3n[nH]c4ccc(NC(=O)C5CCCc6ccccc65)cc34)cc2)CC1 (stereo not drawn) [Example A11, N-(3-(4-(4-methylpiperazin-1-yl)phenyl)-1H-indazol-5-yl)-1,2,3,4-tetrahydronaphthalene-1-carboxamide]",≤ 5 µM,≤ 5 µM,≤ 5 µM,≤ 5 µM,≤ 5 µM,≤ 5 µM
"COc1cc(-c2n[nH]c3ccc(C(=O)NC(c4ccccc4)C4CC4)cc23)ccc1OC1CCNCC1 (stereo not drawn) [Example A13, N-(cyclopropyl(phenyl)methyl)-3-(3-methoxy-4-(piperidin-4-yloxy)phenyl)-1H-indazole-5-carboxamide]",≤ 5 µM,≤ 5 µM,≤ 5 µM,≤ 5 µM,≤ 5 µM,≤ 5 µM
"O=C(Nc1ccc2[nH]nc(-c3ccc4c(c3)OCO4)c2c1)C(c1ccsc1)N1CCCC1 (stereo not drawn) [Example A14, N-(3-(benzo[d][1,3]dioxol-5-yl)-1H-indazol-5-yl)-2-(pyrrolidin-1-yl)-2-(thiophen-3-yl)acetamide]",≤ 5 µM,≤ 5 µM,–,≤ 5 µM,≤ 5 µM,≤ 5 µM
"O=C(Nc1ccc2[nH]nc(-c3ccc4c(c3)OCCO4)c2c1)C(c1ccsc1)N1CCCC1 (stereo not drawn) [Example A15, N-(3-(2,3-dihydrobenzo[b][1,4]dioxin-6-yl)-1H-indazol-5-yl)-2-(pyrrolidin-1-yl)-2-(thiophen-3-yl)acetamide]",≤ 5 µM,≤ 5 µM,–,≤ 5 µM,≤ 5 µM,≤ 5 µM
"CN1CCc2cc(-c3n[nH]c4ccc(NC(=O)C(c5ccsc5)N5CCCC5)cc34)ccc21 (stereo not drawn) [Example A16, N-(3-(1-methylindolin-5-yl)-1H-indazol-5-yl)-2-(pyrrolidin-1-yl)-2-(thiophen-3-yl)acetamide]",≤ 5 µM,≤ 5 µM,≤ 5 µM,≤ 5 µM,≤ 5 µM,≤ 5 µM
"O=C(Nc1ccc2[nH]nc(-c3ccc(CN4CCOCC4)cc3)c2c1)C1CCCc2ccccc21 (stereo not drawn) [Example A23, N-(3-(4-(morpholinomethyl)phenyl)-1H-indazol-5-yl)-1,2,3,4-tetrahydronaphthalene-1-carboxamide]",≤ 5 µM,≤ 5 µM,–,5 to 20 µM,≤ 5 µM,≤ 5 µM

# Source: patent US20140051679A1, “KINASE INHIBITORS AND METHOD OF TREATING CANCER WITH SAME” (UNIVERISTY HEALTH NETWORKS, priority 2011, published 2014)
